Measurements as given in patent US20080009418A1, “Selective Inhibitors” (Alchemia LTD., priority 2004, published 2008).

What was measured:
[1] = target: T1, Human Melanocortin (MC3) (Homo sapiens, UniProt P41968); test: Radioligand binding, human melanocortin MC3 membranes, FlashPlate, [125I]-NDP-αMSH; conditions: compound at 10 μM; for A3 radioligand binding inhibition: human melanocortin MC3 membranes
T1 construct: purchased Perkin Elmer Biosignal
Procedure, shortened: (§1)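 Cloned human receptor membranes were coated onto FlashPlate wells and incubated with radioligand and compound (added from a 0.5 mM DMSO daughter plate) for 1 hour at room temperature in the dark. Scintillation counting gave percent inhibition, with DMSO defining total and reference ligand defining non-specific binding.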

[2] = target: T2, Mouse urotensin (mUR2) (Mus musculus, UniProt Q8VIH9); test: Radioligand binding, mouse urotensin mUR2 membranes, FlashPlate, [125I]-Urotensin II; conditions: compound at 10 μM; for A11 radioligand binding inhibition: mouse urotensin mUR2 membranes
T2 construct: purchased Perkin Elmer Biosignal
T2 sequence (Q8VIH9 1-385): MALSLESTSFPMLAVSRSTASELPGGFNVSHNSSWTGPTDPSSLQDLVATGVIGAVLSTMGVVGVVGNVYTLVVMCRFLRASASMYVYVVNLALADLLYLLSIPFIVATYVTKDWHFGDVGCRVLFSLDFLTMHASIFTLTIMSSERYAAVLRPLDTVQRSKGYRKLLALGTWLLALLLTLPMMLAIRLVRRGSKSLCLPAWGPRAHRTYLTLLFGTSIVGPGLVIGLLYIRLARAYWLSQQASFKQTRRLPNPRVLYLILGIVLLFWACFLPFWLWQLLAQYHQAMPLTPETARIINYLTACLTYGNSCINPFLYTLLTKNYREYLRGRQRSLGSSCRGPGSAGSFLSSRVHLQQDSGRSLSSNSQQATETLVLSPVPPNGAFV
Procedure, shortened: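 Cloned mouse urotensin (mUR2) receptor membranes from Perkin Elmer Biosignal were immobilized in FlashPlate microplates using a proprietary coating. Each well got 19.5 μl buffer, then 0.5 μl of DMSO, reference ligand, or compound. Adding 5 μl of [125I]-Urotensin II, diluted to 5× final concentration in binding buffer, started binding. Plates were sealed with TopSeal-A and incubated 1 hour at room temperature in the dark. Wells were counted for 30 seconds each on a TopCount after a 60-second delay, and percentage inhibition was calculated.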

[3] = target: T3, Human κ-Opioid (KOP) (Homo sapiens, UniProt P41145); test: Radioligand binding, human κ-opioid (KOP) membranes, filtration, [3H]-Diprenorphine; conditions: compound at 10 μM; for A2 radioligand binding inhibition: human κ-opioid (KOP) membranes
T3 construct: purchased Perkin Elmer Biosignal
Procedure, shortened: (§2)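 Membranes from cloned human receptors were incubated with compound and radioligand for 1 hour at room temperature. Bound ligand was collected on 0.3% PEI-soaked filters, washed with cold 50 mM Tris-HCl pH 7.4, and counted by scintillation. Percent inhibition was computed against DMSO totals and reference-ligand nonspecific wells.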

[4] = target: T4, Human δ-opioid (DOP) (Homo sapiens, UniProt P41143); test: Radioligand binding, human δ-opioid (DOP) membranes, FlashPlate, [3H]-Bremazocine; conditions: compound at 10 μM; for A1 radioligand binding inhibition: human δ-opioid (DOP) membranes
T4 construct: purchased Perkin Elmer Biosignal
Procedure, shortened: as §1

[5] = target: T5, Human Melanocortin (MC4) (Homo sapiens, UniProt P32245); test: Radioligand binding, human melanocortin MC4 membranes, FlashPlate, [125I]-NDP-αMSH; conditions: compound at 10 μM; for A4 radioligand binding inhibition: human melanocortin MC4 membranes
T5 construct: purchased Perkin Elmer Biosignal
Procedure, shortened: as §1

[6] = target: T6, Human μ-opioid (MOP) (Homo sapiens, UniProt P35372); test: Radioligand binding, human μ-opioid (MOP) membranes, FlashPlate, [3H]-Naloxone; conditions: compound at 10 μM; for A7 radioligand binding inhibition: human μ-opioid (MOP) membranes
T6 construct: purchased Perkin Elmer Biosignal
Procedure, shortened: as §1

[7] = target: T7, Human opioid (ORL1) (Homo sapiens, UniProt P41146); test: Radioligand binding, human opioid ORL1 membranes, FlashPlate, [125I]-Nociceptin; conditions: compound at 10 μM; for A10 radioligand binding inhibition: human ORL1 membranes
T7 construct: purchased Perkin Elmer Biosignal
Procedure, shortened: as §1

[8] = target: T8, Human melanin-concentrating hormone (MCH1) (Homo sapiens, UniProt Q99705); test: Radioligand binding, human melanin-concentrating hormone MCH1 membranes, FlashPlate, [125I]-S36057; conditions: compound at 10 μM; for A6 radioligand binding inhibition: human MCH1 membranes
T8 construct: purchased Perkin Elmer Biosignal
Procedure, shortened: as §1

[9] = target: T9, Human neuropeptide Y (NPY-Y1) (Homo sapiens, UniProt P25929); test: Radioligand binding, human neuropeptide Y NPY-Y1 membranes, FlashPlate, [125I]-PYY; conditions: compound at 10 μM; for A9 radioligand binding inhibition: human NPY-Y1 membranes
T9 construct: purchased Perkin Elmer Biosignal
T9 sequence (P25929 1-384): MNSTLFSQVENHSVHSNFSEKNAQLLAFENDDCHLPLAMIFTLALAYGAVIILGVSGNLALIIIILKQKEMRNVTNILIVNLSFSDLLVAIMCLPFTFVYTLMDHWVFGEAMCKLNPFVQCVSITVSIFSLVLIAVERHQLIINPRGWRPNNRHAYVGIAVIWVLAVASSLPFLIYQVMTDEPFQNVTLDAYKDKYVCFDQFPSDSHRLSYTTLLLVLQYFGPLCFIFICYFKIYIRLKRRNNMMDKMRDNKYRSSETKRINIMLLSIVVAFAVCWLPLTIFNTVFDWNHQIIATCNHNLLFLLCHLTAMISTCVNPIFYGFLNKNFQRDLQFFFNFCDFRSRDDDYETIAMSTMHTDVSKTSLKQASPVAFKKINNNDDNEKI
Procedure, shortened: as §1

[10] = target: T10, Human neurokinin (NK1) (Homo sapiens, UniProt P25103); test: Radioligand binding, human neurokinin NK1 membranes, filtration, [125I]-Substance P; conditions: compound at 10 μM; for A8 radioligand binding inhibition: human neurokinin NK1 membranes
T10 construct: purchased Perkin Elmer Biosignal
Procedure, shortened: as §2

[11] = target: T11, Human melanocortin (MC5) (Homo sapiens, UniProt P33032); test: Radioligand binding, human melanocortin MC5 membranes, FlashPlate, [125I]-NDP-αMSH; conditions: compound at 10 μM; for A5 radioligand binding inhibition: human melanocortin MC5 membranes
T11 construct: purchased Perkin Elmer Biosignal
Procedure, shortened: as §1

T10 sequence (P25103 whole entry): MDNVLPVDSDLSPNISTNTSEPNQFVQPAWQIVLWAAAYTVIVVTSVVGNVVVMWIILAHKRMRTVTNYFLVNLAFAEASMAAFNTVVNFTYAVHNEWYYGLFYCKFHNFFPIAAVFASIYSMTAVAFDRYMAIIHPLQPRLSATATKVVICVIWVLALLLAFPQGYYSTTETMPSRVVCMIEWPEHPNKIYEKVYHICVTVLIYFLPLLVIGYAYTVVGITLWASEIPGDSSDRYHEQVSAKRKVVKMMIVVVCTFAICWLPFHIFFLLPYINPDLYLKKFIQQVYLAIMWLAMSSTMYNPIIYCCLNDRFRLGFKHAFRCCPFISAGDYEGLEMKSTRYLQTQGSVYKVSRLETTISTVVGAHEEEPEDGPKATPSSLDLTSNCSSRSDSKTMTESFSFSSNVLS
T11 sequence (P33032 whole entry): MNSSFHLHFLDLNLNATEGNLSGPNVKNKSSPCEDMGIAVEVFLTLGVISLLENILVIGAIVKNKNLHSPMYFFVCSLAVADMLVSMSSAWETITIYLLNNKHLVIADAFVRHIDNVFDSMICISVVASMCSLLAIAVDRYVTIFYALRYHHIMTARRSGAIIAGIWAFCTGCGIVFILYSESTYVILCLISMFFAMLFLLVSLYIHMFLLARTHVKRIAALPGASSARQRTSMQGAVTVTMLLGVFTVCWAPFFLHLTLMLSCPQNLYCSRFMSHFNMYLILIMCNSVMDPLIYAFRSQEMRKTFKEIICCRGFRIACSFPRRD
T3 sequence (P41145 whole entry): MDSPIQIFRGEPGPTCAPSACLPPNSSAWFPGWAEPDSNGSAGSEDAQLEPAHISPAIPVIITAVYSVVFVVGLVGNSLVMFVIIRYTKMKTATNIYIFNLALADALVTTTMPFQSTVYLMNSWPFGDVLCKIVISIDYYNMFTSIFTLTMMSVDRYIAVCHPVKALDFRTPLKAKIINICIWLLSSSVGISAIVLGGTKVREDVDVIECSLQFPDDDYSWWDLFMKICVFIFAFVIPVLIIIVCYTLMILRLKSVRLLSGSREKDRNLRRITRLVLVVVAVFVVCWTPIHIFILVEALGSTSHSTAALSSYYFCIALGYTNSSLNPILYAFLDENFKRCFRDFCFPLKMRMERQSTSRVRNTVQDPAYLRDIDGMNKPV
T1 sequence (P41968 whole entry): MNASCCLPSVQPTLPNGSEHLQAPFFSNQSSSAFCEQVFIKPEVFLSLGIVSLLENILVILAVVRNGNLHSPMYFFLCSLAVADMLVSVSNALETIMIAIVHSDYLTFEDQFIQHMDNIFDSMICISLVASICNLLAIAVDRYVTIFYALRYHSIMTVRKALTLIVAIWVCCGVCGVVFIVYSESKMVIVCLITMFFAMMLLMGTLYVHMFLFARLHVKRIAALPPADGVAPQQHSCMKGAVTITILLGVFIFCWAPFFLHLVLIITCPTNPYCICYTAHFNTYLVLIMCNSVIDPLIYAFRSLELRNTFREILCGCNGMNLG
T8 sequence (Q99705 whole entry): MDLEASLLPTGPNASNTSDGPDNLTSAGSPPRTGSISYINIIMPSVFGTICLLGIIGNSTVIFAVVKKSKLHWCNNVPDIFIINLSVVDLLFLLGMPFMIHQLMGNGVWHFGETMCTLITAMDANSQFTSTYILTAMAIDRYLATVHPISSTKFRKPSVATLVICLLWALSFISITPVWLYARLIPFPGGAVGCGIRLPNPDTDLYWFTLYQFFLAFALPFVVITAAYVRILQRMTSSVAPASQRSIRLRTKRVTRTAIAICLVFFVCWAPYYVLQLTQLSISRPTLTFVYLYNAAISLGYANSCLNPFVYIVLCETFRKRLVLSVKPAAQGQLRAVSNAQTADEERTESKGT
T7 sequence (P41146 whole entry): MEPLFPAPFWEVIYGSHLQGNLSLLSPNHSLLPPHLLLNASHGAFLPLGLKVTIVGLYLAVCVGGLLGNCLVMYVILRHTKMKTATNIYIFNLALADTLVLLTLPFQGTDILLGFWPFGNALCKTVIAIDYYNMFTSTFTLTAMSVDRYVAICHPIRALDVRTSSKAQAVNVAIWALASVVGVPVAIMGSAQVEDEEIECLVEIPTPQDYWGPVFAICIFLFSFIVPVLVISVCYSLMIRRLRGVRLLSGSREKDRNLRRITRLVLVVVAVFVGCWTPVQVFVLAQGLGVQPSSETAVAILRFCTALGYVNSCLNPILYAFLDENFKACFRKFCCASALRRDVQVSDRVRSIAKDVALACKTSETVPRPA
T6 sequence (P35372 whole entry): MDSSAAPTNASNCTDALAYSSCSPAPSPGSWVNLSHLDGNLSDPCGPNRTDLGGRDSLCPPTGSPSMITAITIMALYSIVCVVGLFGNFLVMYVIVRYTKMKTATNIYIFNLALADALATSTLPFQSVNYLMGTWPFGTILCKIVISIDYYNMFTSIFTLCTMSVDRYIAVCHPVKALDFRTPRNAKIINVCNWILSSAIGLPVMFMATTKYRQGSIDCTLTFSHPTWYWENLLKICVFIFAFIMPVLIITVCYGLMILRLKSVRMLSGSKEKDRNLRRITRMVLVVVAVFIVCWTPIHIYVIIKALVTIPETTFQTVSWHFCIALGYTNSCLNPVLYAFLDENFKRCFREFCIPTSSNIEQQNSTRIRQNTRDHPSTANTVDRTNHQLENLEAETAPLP
T4 sequence (P41143 whole entry): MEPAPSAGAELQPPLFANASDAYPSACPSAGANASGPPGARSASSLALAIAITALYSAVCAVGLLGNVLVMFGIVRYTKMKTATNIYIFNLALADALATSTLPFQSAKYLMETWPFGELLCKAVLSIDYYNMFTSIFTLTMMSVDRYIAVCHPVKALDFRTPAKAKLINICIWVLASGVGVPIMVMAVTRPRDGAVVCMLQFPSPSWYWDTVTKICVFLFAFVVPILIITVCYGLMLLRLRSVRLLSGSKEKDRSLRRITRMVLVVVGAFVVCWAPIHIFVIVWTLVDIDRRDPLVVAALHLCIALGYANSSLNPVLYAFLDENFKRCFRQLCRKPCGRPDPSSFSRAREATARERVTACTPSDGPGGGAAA
T5 sequence (P32245 whole entry): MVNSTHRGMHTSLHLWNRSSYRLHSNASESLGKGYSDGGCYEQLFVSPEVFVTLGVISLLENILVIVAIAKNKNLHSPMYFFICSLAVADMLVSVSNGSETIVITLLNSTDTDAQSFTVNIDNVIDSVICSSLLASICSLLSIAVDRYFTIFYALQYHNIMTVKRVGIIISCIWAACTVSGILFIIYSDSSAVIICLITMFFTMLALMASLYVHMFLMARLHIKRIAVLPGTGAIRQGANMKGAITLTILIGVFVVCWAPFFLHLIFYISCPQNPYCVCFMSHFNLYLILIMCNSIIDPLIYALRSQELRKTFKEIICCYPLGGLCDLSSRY

Structure (SMILES) | A3 radioligand binding inhibition [1] | A11 radioligand binding inhibition [2] | A2 radioligand binding inhibition [3] | A1 radioligand binding inhibition [4] | A4 radioligand binding inhibition [5] | A7 radioligand binding inhibition [6] | A10 radioligand binding inhibition [7] | A6 radioligand binding inhibition [8] | A9 radioligand binding inhibition [9] | A8 radioligand binding inhibition [10] | A5 radioligand binding inhibition [11] | other results
CO[C@H]1[C@H](O)[C@@H](COCc2ccc(Cl)cc2)OC(OCc2ccccc2)[C@@H]1NC(=O)CCNC(=N)N (stereo partly drawn) [compound 91] | − (“−” indicates less than 50% inhibition at 10 μM) | − (“−” indicates less than 50% inhibition at 10 μM) | − (“−” indicates less than 50% inhibition at 10 μM) | − (“−” indicates less than 50% inhibition at 10 μM) | − (“−” indicates less than 50% inhibition at 10 μM) | − (“−” indicates less than 50% inhibition at 10 μM) | − (“−” indicates less than 50% inhibition at 10 μM) | − (“−” indicates less than 50% inhibition at 10 μM) | − (“−” indicates less than 50% inhibition at 10 μM) | + (“+” indicates greater than 50% inhibition at 10 μM) | − (“−” indicates less than 50% inhibition at 10 μM) | –
CO[C@H]1[C@H](O)[C@@H](COCc2ccc(Cl)cc2)OC(OCc2ccc3ccccc3c2)[C@@H]1NC(=O)CNC(=N)N (stereo partly drawn) [compound 78] | − (“−” indicates less than 50% inhibition at 10 μM) | − (“−” indicates less than 50% inhibition at 10 μM) | − (“−” indicates less than 50% inhibition at 10 μM) | − (“−” indicates less than 50% inhibition at 10 μM) | − (“−” indicates less than 50% inhibition at 10 μM) | − (“−” indicates less than 50% inhibition at 10 μM) | − (“−” indicates less than 50% inhibition at 10 μM) | − (“−” indicates less than 50% inhibition at 10 μM) | − (“−” indicates less than 50% inhibition at 10 μM) | + (“+” indicates greater than 50% inhibition at 10 μM) | + (“+” indicates greater than 50% inhibition at 10 μM) | –
COC[C@H]1OC(OCc2ccc(-c3ccccc3)cc2)[C@H](NC(=O)CCCNC(=N)N)[C@@H](OCc2ccc(-c3ccccc3)cc2)[C@@H]1O (single isomer, unassigned) [compound 336] | – | – | – | – | – | – | – | – | – | – | – | A3: inhibition of radioligand binding, human melanocortin (MC3) ([1]; [125I]-NDP-αMSH, 10 µM): − (“−” indicates less than 50% inhibition at 10 μM); A11: inhibition of radioligand binding, mouse urotensin (mUR2) ([2]; [125I]-Urotensin II): − (“−” indicates less than 50% inhibition at 10 μM); A2: inhibition of radioligand binding, human κ-opioid (KOP) ([3]; [3H]-Diprenorphine, 10 µM): − (“−” indicates less than 50% inhibition at 10 μM); A1: inhibition of radioligand binding, human δ-opioid (DOP) ([4]; [3H]-Bremazocine, 10 µM): − (“−” indicates less than 50% inhibition at 10 μM); A4: inhibition of radioligand binding, human melanocortin (MC4) ([5]; [125I]-NDP-αMSH): + (“+” indicates greater than 50% inhibition at 10 μM); A7: inhibition of radioligand binding, human μ-opioid (MOP) ([6]; [3H]-Naloxone, 10 µM): − (“−” indicates less than 50% inhibition at 10 μM); A10: inhibition of radioligand binding, human opioid (ORL1) ([7]; [125I]-Nociceptin): − (“−” indicates less than 50% inhibition at 10 μM); A6: inhibition of radioligand binding, human melanin-concentrating hormone (MCH1) ([8]; [125I]-S36057): + (“+” indicates greater than 50% inhibition at 10 μM); A9: inhibition of radioligand binding, human neuropeptide Y (NPY-Y1) ([9]; [125I]-PYY): − (“−” indicates less than 50% inhibition at 10 μM); A8: inhibition of radioligand binding, human neurokinin (NK1) ([10]; [125I]-Substance P): + (“+” indicates greater than 50% inhibition at 10 μM); A5: inhibition of radioligand binding, human melanocortin (MC5) ([11]; [125I]-NDP-αMSH): + (“+” indicates greater than 50% inhibition at 10 μM)
